One series addresses T1, VAP-1 (Homo sapiens, UniProt Q16853).
T1 construct: purchased R&D Systems
T1 sequence (Q16853 1-763): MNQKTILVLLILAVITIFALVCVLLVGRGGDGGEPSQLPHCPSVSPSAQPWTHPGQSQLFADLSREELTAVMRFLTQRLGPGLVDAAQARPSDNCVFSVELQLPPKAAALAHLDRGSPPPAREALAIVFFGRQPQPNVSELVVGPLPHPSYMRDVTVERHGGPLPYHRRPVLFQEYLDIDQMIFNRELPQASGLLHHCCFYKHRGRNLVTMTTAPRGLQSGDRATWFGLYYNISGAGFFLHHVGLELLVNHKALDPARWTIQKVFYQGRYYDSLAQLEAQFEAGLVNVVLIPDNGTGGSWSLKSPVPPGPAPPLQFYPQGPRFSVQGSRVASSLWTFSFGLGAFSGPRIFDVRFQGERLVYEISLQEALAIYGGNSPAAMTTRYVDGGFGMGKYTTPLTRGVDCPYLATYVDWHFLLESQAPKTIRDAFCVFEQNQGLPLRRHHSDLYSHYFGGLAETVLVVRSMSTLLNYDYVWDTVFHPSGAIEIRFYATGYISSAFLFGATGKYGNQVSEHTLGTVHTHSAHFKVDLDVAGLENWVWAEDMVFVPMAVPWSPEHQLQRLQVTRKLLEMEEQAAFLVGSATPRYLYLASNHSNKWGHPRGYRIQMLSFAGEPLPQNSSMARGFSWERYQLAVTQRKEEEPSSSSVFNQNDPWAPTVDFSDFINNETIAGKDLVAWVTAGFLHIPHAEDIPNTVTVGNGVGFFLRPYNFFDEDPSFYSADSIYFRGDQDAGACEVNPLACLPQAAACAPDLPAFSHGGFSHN
The experiment in a line: Inhibition of the enzymatic activity of VAP-1 in vitro (Amplex Red). It is filed as biochemical. To be noted: VAP-1 protein about 20 nM, 10 min pre-incubation, benzylamine substrate; read-out: IC50, inhibition against the enzymatic activity of VAP-1. The protocol:
Inhibition Experiment Against the Enzymatic Activity of VAP-1(Vascular Adhesion Protein 1) in vitro
(§1) Test kit: Amplex® Red Monoamine Oxidase Assay, Manufacturer: ThermoFisher
(§2) Reaction buffer solution: 50 mM PBS, pH 7.4
Enzyme: VAP-1, Manufacturer: R&D Systems
VAP-1 protein (about 20 nM) and different concentrations of the test compound were pre-incubated at room temperature for 10 minutes, followed by an addition of […] benzylamine hydrochloride, 1 U/mL HRP and 200 μM Amplex Red reagent according to the specification of the test kit to start the reaction. The reaction plate was placed in the enzyme marker, and in kinetic mode, fluorescence signals were measured at Ex/Em=540/590 nm. The relative inhibition activity of each concentration group was calculated, wherein the ratio (slope) of fluorescence signal to reaction time in the linear range is the reaction rate, the vehicle group (DMSO) is the negative control, and the reaction buffer solution group (without enzymes and the compounds) is the blank control. The half inhibition concentration (IC50) of the compound was calculated according to four-parameter model fitting curve.

Series [1] deals with T2, VAP-1 in abdominal fat of mice (Mus musculus, UniProt O70423).
T2 construct: abdominal fat was collected and homogenized; from tissue; host or cells: abdominal fat of BALBc mice (homogenate supernatant)
T2 sequence (O70423 1-765): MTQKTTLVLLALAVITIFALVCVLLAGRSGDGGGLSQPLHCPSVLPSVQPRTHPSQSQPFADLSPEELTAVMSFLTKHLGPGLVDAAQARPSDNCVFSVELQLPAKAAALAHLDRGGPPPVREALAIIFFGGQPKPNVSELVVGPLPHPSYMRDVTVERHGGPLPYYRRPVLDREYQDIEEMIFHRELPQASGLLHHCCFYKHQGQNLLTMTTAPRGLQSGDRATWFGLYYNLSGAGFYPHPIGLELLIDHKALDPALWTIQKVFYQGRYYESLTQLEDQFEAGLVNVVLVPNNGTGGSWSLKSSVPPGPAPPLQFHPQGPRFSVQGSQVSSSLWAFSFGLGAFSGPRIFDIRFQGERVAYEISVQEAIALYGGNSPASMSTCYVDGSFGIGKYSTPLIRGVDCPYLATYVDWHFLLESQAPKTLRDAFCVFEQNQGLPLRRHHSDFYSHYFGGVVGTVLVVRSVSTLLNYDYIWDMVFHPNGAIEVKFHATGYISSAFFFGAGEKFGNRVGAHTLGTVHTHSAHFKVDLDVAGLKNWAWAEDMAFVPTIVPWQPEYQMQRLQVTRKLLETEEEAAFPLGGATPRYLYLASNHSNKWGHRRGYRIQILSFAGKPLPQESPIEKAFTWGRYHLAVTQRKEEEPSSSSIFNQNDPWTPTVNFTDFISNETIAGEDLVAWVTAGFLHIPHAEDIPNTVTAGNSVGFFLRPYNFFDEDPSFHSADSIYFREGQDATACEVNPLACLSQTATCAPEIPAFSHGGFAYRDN
The experiment in a line: Inhibition of the enzymatic activity of VAP-1 ex-vivo, abdominal fat after oral dosing. It is filed as in vivo, BALBc mice. The conditions noted are these: abdominal fat collected after six hours; for inhibition at 0.5 mg/kg / inhibition at 2 mg/kg: mouse, read-out: Inhibition rate (%) against the enzymatic activity of VAP-1 (ex-vivo); for inhibition at 0.5 mg/kg: 0.5 mg/kg oral; for Inhibition rate (%) against the enzymatic activity of VAP-1 (ex-vivo) / inhibition at 2 mg/kg: 2 mg/kg oral. The protocol: Inhibition Experiment Against the Enzymatic Activity (ex-vivo)
Tissue homogenate buffer solution (20 mM HEPES, pH 7.2, 1 mM EDTA, 250 mM sucrose, PMSF 0.2 mM)
as §2, §1
BALBc mice were administrated orally with different doses of the test compound, and the vehicle group was used as the control group. After six hours, abdominal fat was collected and homogenized at 1:20 (w/v) with the pre-cooled homogenate buffer solution, and thereafter, the homogenate was centrifuged at 10,000 g and 4° C. or 10 minutes, the supernatant was collected and stored at -80° C. for further use.
A test sample was diluted with the reaction buffer solution and successively added with the inhibition solution A: 1 μM Clorgyline+1 μM pargylin, to inhibit the activities of MAO-A and MAO-B, and the inhibition solution B: 1 μM Clorgyline+1 μM Pargylin+1 μM Mofegiline as the blank control, and after being incubated at room temperature for 20 min, 500 μM benzylamine hydrochloride, 1 U/mL HRP and 200 μM Amplex Red reagent were added to start the reaction. By referring to the method in “Experiment of inhibiting the enzymatic activity of VAP-1”, relative activity of each dose group was calculated, wherein the ratio of the fluorescent signal to reaction time in the linear range is the reaction rate, and the vehicle group is the positive control, thereby to study the inhibition of the compound against the enzymatic activity of VAP-1 in abdominal fat of mice.

A further series has as its target T3, hERG (Homo sapiens, UniProt Q12809).
T3 construct: purchased ThermoFisher; host or cells: hERG cell membrane supplied with the kit
The series is described as follows: hERG fluorescence polarization inhibition experiment. To be noted: hERG cell membrane, 25° C. 2 hours, read-out: hERG (IC50 range, competitive binding vs tracer). The protocol: hERG (Ether-a-go-go-related Gene Potassium Channel) Inhibition Experiment
Reagent: Predictor™ hERG Fluorescence Polarization Assay Kit, Manufacturer: ThermoFisher
The above test kit was used to evaluate the potential of the compound for inducing heart QT prolongation. According to the method as indicated in the specification of the test kit, the test compound, the positive control (E4031) and negative control (Experimental buffer solution) in the kit were added to a microwell plate containing hERG cell membrane, and then a tracer having high affinity to hERG was added. The microwell plate was then incubated at 25° C. for 2 hours, a BMG PHAREStar polyfunctional enzyme marker was used to test the variations in the fluorescent polarization value. By calculating the percent inhibition rates (%) at different concentrations, the range of the half inhibition concentration (IC50) was determined:
Percent inhibition rate (%)=(1-(mP of the test compound-mP of 30 μM E4031)/(mP of experimental buffer solution-mP of 30 μM E4031))*100.

The structures appear in SMILES notation. Structures can show the parent of a compound that is named as a salt. Bounds are passed on as bounds.

The term IC50 denotes the concentration needed to halve the response being measured. Broadly, the inhibition is the drop in the measured response relative to a control, in per cent.

T3 sequence (Q12809 whole entry): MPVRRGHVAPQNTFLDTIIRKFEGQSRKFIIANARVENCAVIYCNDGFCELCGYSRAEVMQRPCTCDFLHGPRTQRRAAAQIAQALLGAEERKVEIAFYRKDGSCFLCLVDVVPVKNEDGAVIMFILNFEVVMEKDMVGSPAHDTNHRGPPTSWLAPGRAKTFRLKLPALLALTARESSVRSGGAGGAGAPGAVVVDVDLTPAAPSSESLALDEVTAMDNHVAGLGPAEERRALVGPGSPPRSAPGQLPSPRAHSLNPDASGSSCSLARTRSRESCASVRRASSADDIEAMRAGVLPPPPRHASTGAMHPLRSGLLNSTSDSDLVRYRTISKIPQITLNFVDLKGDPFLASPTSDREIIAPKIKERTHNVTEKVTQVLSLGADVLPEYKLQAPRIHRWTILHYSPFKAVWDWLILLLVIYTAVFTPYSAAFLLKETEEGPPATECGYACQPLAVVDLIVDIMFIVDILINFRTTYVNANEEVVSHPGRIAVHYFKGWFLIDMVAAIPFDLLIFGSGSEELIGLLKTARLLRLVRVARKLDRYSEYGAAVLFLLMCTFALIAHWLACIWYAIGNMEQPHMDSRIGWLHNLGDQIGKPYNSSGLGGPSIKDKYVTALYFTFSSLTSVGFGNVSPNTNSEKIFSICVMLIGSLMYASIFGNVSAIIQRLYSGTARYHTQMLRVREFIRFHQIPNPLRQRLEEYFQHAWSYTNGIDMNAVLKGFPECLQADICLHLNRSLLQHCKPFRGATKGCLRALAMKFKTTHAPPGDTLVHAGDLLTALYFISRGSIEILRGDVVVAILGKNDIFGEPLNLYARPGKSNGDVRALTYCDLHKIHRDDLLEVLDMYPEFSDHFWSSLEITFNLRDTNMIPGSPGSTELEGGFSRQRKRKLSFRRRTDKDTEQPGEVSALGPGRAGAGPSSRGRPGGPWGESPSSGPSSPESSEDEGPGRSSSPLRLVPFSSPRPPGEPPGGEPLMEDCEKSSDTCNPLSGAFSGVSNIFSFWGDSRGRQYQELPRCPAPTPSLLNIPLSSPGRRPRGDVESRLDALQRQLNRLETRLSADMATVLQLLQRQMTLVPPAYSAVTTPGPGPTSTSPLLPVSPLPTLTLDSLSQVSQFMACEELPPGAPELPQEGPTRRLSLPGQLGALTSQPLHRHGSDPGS

Turning to `NC/C(=C/F)COc1ccc(-c2ncccn2)cc1` [TM39-Z, (Z)-2-(4-(2-pyrimidyl)phenoxymethyl)-3-fluoroallylamine trifluoroacetate], the IC50 on VAP-1 is 0.7 ± 0.1 nM; on hERG it was more than 10000 nM. Further, in series [1], the inhibition at 0.5 mg/kg was determined as 93.2 ± 3.9%.
Consider `NCC(=CF)COc1ccc2c(c1)CN(Cc1ccc(Cl)cc1)C2=O` [TM33, 5-((2-aminomethyl-3-fluoroallyl)oxy)-2-(4-chlorobenzyl)isoindolin-1-one], for which the IC50 on VAP-1 was determined as 3.3 ± 0.2 nM. In addition, in series [1], the “Inhibition rate (%) against the enzymatic activity of VAP-1 (ex-vivo)” value (from here on “Inhibition rate (%)”) was “completely inhibited” and the inhibition at 2 mg/kg came to 105 ± 9.1%.
For `NCC(=CF)COc1ccc(C(=O)N2CCc3ccccc3C2)cc1` [TM45, (4-((2-aminomethyl-3-fluoroallyl)oxy)phenyl)-(3,4-dihydroisoquinolin-2(1H)-yl)methanone trifluoroacetate], the IC50 was 0.9 ± 0.1 nM on VAP-1 and more than 10000 nM at hERG. Also, in series [1], the inhibition at 2 mg/kg came out at 91.9 ± 6.4%.
On the same counts, the results for `NCC(=CF)COc1ccc(C(=O)N2CCC(c3ccccc3)CC2)cc1` [TM44, (4-((2-aminomethyl-3-fluoroallyl)oxy)phenyl)-(4-phenylpiperidin-1-yl)methanone trifluoroacetate] are 3.4 ± 0.4 nM, more than 10000 nM and 95.8 ± 6.2%.
For `NCC(=CF)COc1ccc(-c2nc3ccc(Cl)cc3s2)cc1` [TM41, 2-(4-(6-chloro-benzothiazol-2-yl)phenoxymethyl)-3-fluoroallylamine trifluoroacetate], the IC50 at VAP-1 stood at 4.8 ± 0.7 nM. In addition, in series [1], the inhibition at 2 mg/kg is 96.1 ± 17.4%.
Consider `NCC(=CF)COc1ccc(-c2nc3ccccc3[nH]2)cc1.O=C(O)C(F)(F)F` [TM42, 2-(4-(1H-benzoimidazol-2-yl)phenoxymethyl)-3-fluoroallylamine trifluoroacetate], for which the IC50 at VAP-1 was determined as 1.6 ± 0.2 nM. In series [1], the “Inhibition rate (%)” value is on record as “completely inhibited” and the inhibition at 2 mg/kg amounted to 106 ± 8.4%. For the same molecule, the IC50 on hERG is more than 10000 nM.
As to `NCC(=CF)COc1ccc(C(=O)Nc2ccc(F)cc2)cc1` [TM61, N-(4-fluorophenyl)-4-((2-aminomethyl-3-fluoroallyl)oxy)-benzamide trifluoroacetate], the IC50 on VAP-1 was 0.5 nM; on hERG it was more than 10000 nM. In series [1], the inhibition at 2 mg/kg amounted to 99.7 ± 8.7%.
Take `NC/C(=C\F)COc1ccc2c(c1)CN(Cc1ccc(Cl)cc1)C2=O` [TM33-E, (E)-5-((2-aminomethyl-3-fluoroallyl)oxy)-2-(4-chlorobenzyl)isoindolin-1-one]: the figures for the IC50 at VAP-1 and at hERG were 4.9 ± 0.5 nM and more than 10000 nM, respectively.
For `NCC(=CF)COc1ccc2c(c1)CCNC2=O.O=C(O)C(F)(F)F` [TM26, 6-((2-aminomethyl-3-fluoroallyl)oxy)-3,4-dihydroisoquinolin-1(2H)-one trifluoroacetate], the IC50 on VAP-1 is 5.8 ± 1 nM; at hERG, more than 30000 nM. Also, the “Inhibition rate (%)” value in series [1] is “completely inhibited”. In addition, the inhibition at 2 mg/kg in series [1] is 112 ± 7.1%.
Turning to `NC/C(=C\F)COc1ccc(C(=O)N[C@H]2CCCc3ccccc32)cc1` [TM63-E, (E)-(S)-N-(1,2,3,4-tetrahydro-1-naphthyl)-4-(2-aminomethyl-3-fluoroallyl)oxy)-benzamide trifluoroacetate], the IC50 is 5.7 ± 0.8 nM on VAP-1 and more than 10000 nM on hERG.
As for `NC/C(=C/F)COc1ccc(C(=O)Nc2ccccc2)cc1` [TM1-Z, (Z)-N-phenyl-4-((2-aminomethyl-3-fluoroallyl)oxy)-benzamide trifluoroacetate], the IC50 was 0.7 ± 0.1 nM at VAP-1 and more than 10000 nM on hERG. The inhibition at 0.5 mg/kg in series [1] was 93.3 ± 5.4%.
As for `NC/C(=C/F)COc1ccc(C(=O)N[C@H]2CCCc3ccccc32)cc1` [TM63-Z, (Z)-(S)-N-(1,2,3,4-tetrahydro-1-naphthyl)-4-((2-aminomethyl-3-fluoroallyl)oxy)-benzamide trifluoroacetate], the IC50 on VAP-1 is 4.4 ± 0.8 nM; at hERG it was more than 10000 nM.
The matching figures for `NCC(=CF)COc1ccc(C(=O)Nc2ccccc2)cc1` [TM1, N-phenyl-4-((2-aminomethyl-3-fluoroallyl)oxy)-benzamide trifluoroacetate]: 0.5 nM and more than 10000 nM.

The values are drawn from patent US20200087248A1, “Fluoroallylamine Derivative And Use Thereof” (SICHUAN KELUN-BIOTECH BIOPHARMACEUTICAL CO., LTD., priority 2017, published 2020).
